Entries after “also recorded” stand apart in the source; their conditions may differ.
Assay: HBV Replication Inhibition Assay: HBV replication inhibition by the compounds of this invention could be determined in cells infected or transfected with HBV, or cells with stably integrated HBV, such as HepG2.2.15 cells (Sells et al. 1987). In this example, HepG2.2.15 cells were maintained in cell culture medium containing 10% fetal bovine serum (FBS), Geneticin, L-glutamine, penicillin and streptomycin. HepG2.2.15 cells could be seeded in 96-well plates at a density of 40,000 cells/well and be treated with serially diluted compounds at a final DMSO concentration of 0.5% either alone or in combination by adding drugs in a checker box format. Cells were incubated with compounds for three days, after which medium was removed and fresh medium containing compounds was added to cells and incubated for another three days. At day 6, supernatant was removed and treated with DNase at 37° C. for 60 minutes, followed by enzyme inactivation at 75° C. for 15 minutes. Encapsidated HBV DNA was released from the virions and covalently linked HBV polymerase by incubating in lysis buffer (Affymetrix QS0010) containing 2.5 μg proteinase K at 50° C. for 40 minutes. HBV DNA was denatured by addition of 0.2 M NaOH and detected using a branched DNA (BDNA) QuantiGene assay kit according to manufacturer recommendation (Affymetrix). HBV DNA levels could also be quantified using qPCR, based on amplification of encapsidated HBV DNA extraction with QuickExtraction Solution (Epicentre Biotechnologies) and amplification of HBV DNA using HBV specific PCR probes that can hybridize to HBV DNA and a fluorescently labeled probe for quantitation. In addition, cell viability of HepG2.2.15 cells incubated with test compounds alone or in combination was determined by using CellTitre-Glo reagent according to the manufacturer protocol (Promega). The mean background signal from wells containing only culture medium was subtracted from all other samples, and percent inhibition at each compound concentration was calculated by normalizing to signals from HepG2.2.15 cells treated with 0.5% DMSO using equation E1.% inhibition=(DMSOave−Xi)/DMSOave×100% E1:where DMSOave is the mean signal calculated from the wells that were treated with DMSO control (0% inhibition control) and Xi is the signal measured from the individual wells. EC50 values, effective concentrations that achieved 50% inhibitory effect, were determined by non-linear fitting using Graphpad Prism software (San Diego, Calif.) and equation E2Y=Y min+(Y max−Y min)/(1+10(Log EC50−X)×HillSlope) E2:where Y represents percent inhibition values and X represents the logarithm of compound concentrations.
Conditions: not given

| Structure (SMILES) | EC50 |
| --- | --- |
| CC1Cc2[nH]nc(C3CCCO3)c2CN1C(=O)Nc1ccc(F)c(C#N)c1 (stereo not drawn) | in the range around 300 nM |
| CC1Cc2[nH]nc(C3CCCC3)c2CN1C(=O)Nc1ccc(F)c(C#N)c1 (stereo not drawn) | in the range around 55 nM |
| CC1Cc2[nH]nc(C3CCC3)c2CN1C(=O)Nc1cccc(C#N)c1F (stereo not drawn) | in the range around 300 nM |
| CC1Cc2[nH]nc(C3CCCC3)c2CN1C(=O)Nc1cccc(Cl)c1 (stereo not drawn) | in the range around 55 nM |
| CC1Cc2[nH]nc(C3CCCO3)c2CN1C(=O)Nc1ccc(F)c(Cl)c1 (stereo not drawn) | in the range around 55 nM |
| Cc1cc(NC(=O)N2Cc3c(C4CCCC4)n[nH]c3CC2C)ccc1F (stereo not drawn) | in the range around 55 nM |
| CC1Cc2[nH]nc(C3CCCC3)c2CN1C(=O)Nc1ccc(F)c(Br)c1 (stereo not drawn) | in the range around 55 nM |
| CC1Cc2[nH]nc(C3CCCO3)c2CN1C(=O)Nc1ccc(F)c(Br)c1 (stereo not drawn) | in the range around 55 nM; also recorded: in the range around 300 nM |
| Cc1cccc(NC(=O)N2Cc3c(C4CCCC4)n[nH]c3CC2C)c1 (stereo not drawn) | in the range around 55 nM |
| CC1Cc2[nH]nc(C3CCCC3)c2CN1C(=O)Nc1ccc(F)c(Cl)c1 (stereo not drawn) | in the range around 55 nM |
| Cc1cc(NC(=O)N2Cc3c(C4CCCO4)n[nH]c3CC2C)ccc1F (stereo not drawn) | in the range around 55 nM; also recorded: in the range around 300 nM |
| CC1Cc2[nH]nc(C3CCCC3)c2CN1C(=O)Nc1cccc(Br)c1 (stereo not drawn) | in the range around 55 nM |
| CC1Cc2[nH]nc(C3CCCC3)c2CN1C(=O)Nc1ccnc(Br)c1F (stereo not drawn) | in the range around 55 nM |
| CC1Cc2[nH]nc(C3CCC3)c2CN1C(=O)Nc1ccnc(Br)c1F (stereo not drawn) | in the range around 300 nM |

Same assay, conditions: HepG2.2.15

| Structure (SMILES) | EC50 |
| --- | --- |
| O=C(Nc1cccc(Br)c1)N1CCc2[nH]nc(C34CCCC3C4)c2C1 (stereo not drawn) | in the range around 55 nM |
| N#Cc1cccc(NC(=O)N2CCc3[nH]nc(C45CCCC4C5)c3C2)c1F (stereo not drawn) | in the range around 55 nM |
| O=C(Nc1cccc(Cl)c1)N1CCc2[nH]nc(O)c2C1 | > 10000 nM |
| O=C(Nc1cccc(Br)c1)N1CCc2[nH]nc(C3CCC3)c2C1 | in the range around 55 nM |
| CC1Cc2[nH]nc(C3CCCO3)c2CN1C(=O)Nc1cccc(Cl)c1 (stereo not drawn) | in the range around 55 nM |
| O=C(Nc1ccnc(Cl)c1F)N1CCc2[nH]nc(C34CCCC3C4)c2C1 (stereo not drawn) | in the range around 55 nM |
| O=C(Nc1ccnc(Cl)c1F)N1CCc2[nH]nc(C3CCC3)c2C1 | in the range around 300 nM |
| CC1Cc2[nH]nc(C3CCC3)c2CN1C(=O)Nc1ccc(F)c(F)c1 (stereo not drawn) | in the range around 55 nM |
| O=C(Nc1ccc(F)c(Br)c1)N1CCc2[nH]nc(C34CCCC3C4)c2C1 (stereo not drawn) | in the range around 55 nM |
| O=C(Nc1ccc(F)c(Cl)c1)N1CCc2[nH]nc(C3CCC3)c2C1 | in the range around 55 nM |
| O=C(Nc1cccc(Cl)c1)N1CCc2[nH]nc(C3CCC(O)C3)c2C1 (stereo not drawn) | in the range around 300 nM |
| CC1Cc2[nH]nc(C3CCCO3)c2CN1C(=O)Nc1ccc(F)c(C#N)c1 (stereo not drawn) | in the range around 300 nM |
| O=C(Nc1ccc(F)c(Br)c1)N1CCc2[nH]nc(C3CCC3)c2C1 | in the range around 55 nM |
| O=C(Nc1cccc(Cl)c1)N1CCc2[nH]nc(C3CCCO3)c2C1 (stereo not drawn) | in the range around 55 nM |
| O=C(Nc1ccnc(Br)c1F)N1CCc2[nH]nc(C3CCC3)c2C1 | in the range around 300 nM |
| CC1Cc2[nH]nc(C3CCCC3)c2CN1C(=O)Nc1ccc(F)c(C#N)c1 (stereo not drawn) | in the range around 55 nM |
| CC1Cc2[nH]nc(C3CCC3)c2CN1C(=O)Nc1cccc(C#N)c1F (stereo not drawn) | in the range around 300 nM |
| CC1Cc2[nH]nc(C3CCC3)c2CN1C(=O)Nc1cccc(Br)c1F (stereo not drawn) | in the range around 300 nM |
| CC(C)(C)c1n[nH]c2c1CN(C(=O)Nc1cccc(Cl)c1)CC2 | in the range around 300 nM |
| O=C(Nc1ccc(F)c(Cl)c1)N1CCc2[nH]nc(C34CCCC3C4)c2C1 (stereo not drawn) | in the range around 55 nM |
| O=C(Nc1cccc(Cl)c1)N1CCc2[nH]nc(C3=CCCCC3)c2C1 | in the range around 55 nM |
| Cc1cccc(NC(=O)N2CCc3[nH]nc(C4CCC4)c3C2)c1 | in the range around 300 nM |
| C=C(C)c1n[nH]c2c1CN(C(=O)Nc1cccc(C)c1)CC2 | in the range around 300 nM |
| CCC(F)(F)c1n[nH]c2c1CN(C(=O)Nc1cccc(Cl)c1)CC2 | in the range around 300 nM |
| CC1Cc2[nH]nc(C3CCCC3)c2CN1C(=O)Nc1cccc(Cl)c1 (stereo not drawn) | in the range around 55 nM |

| Structure (SMILES) | EC50 |
| --- | --- |
| CC1(c2n[nH]c3c2CN(C(=O)Nc2cccc(Cl)c2)CC3)CC1 | in the range around 300 nM |
| CC(C)c1n[nH]c2c1CN(C(=O)Nc1cccc(Cl)c1)CC2 | in the range around 300 nM |
| O=C(Nc1ccc(F)c(F)c1)N1CCc2[nH]nc(C34CCCC3C4)c2C1 (stereo not drawn) | in the range around 300 nM |
| O=C(Nc1cccc(Br)c1F)N1CCc2[nH]nc(C3CCC3)c2C1 | in the range around 55 nM |
| CC1Cc2[nH]nc(C3CCCO3)c2CN1C(=O)Nc1ccnc(Br)c1F (stereo not drawn) | 750 nM |
| CC1Cc2[nH]nc(C3CCCO3)c2CN1C(=O)Nc1ccc(F)c(Cl)c1 (stereo not drawn) | in the range around 55 nM |
| O=C(Nc1cccc(Cl)c1)N1CCc2[nH]nc(C3CCCC3)c2C1 | in the range around 55 nM |
| Cc1cc(NC(=O)N2Cc3c(C4CCCC4)n[nH]c3CC2C)ccc1F (stereo not drawn) | in the range around 55 nM |
| CC1Cc2[nH]nc(C3CCC3)c2CN1C(=O)Nc1ccc(F)c(Br)c1 (stereo not drawn) | in the range around 55 nM |
| Cc1cc(NC(=O)N2CCc3[nH]nc(C4CCC4)c3C2)ccc1F | in the range around 55 nM |
| C=C(C)c1n[nH]c2c1CN(C(=O)Nc1cccc(Cl)c1)CC2 | in the range around 55 nM |
| CC1Cc2[nH]nc(C3CCC3)c2CN1C(=O)Nc1cccc(Br)c1 (stereo not drawn) | in the range around 55 nM |
| Cc1cc(NC(=O)N2Cc3c(C4CCC4)n[nH]c3CC2C)ccc1F (stereo not drawn) | in the range around 55 nM |
| O=C(Nc1ccc(F)c(F)c1)N1CCc2[nH]nc(C3CCC3)c2C1 | in the range around 300 nM |
| O=C(Nc1cccc(Cl)c1)N1CCc2[nH]nc(Br)c2C1 | > 10000 nM |
| CC(CO)c1n[nH]c2c1CN(C(=O)Nc1cccc(Cl)c1)CC2 (stereo not drawn) | > 10000 nM |
| CC1Cc2[nH]nc(C3CCCO3)c2CN1C(=O)Nc1cccc(Br)c1 (stereo not drawn) | in the range around 55 nM |
| CCC(C)(C)c1n[nH]c2c1CN(C(=O)Nc1cccc(Cl)c1)CC2 | in the range around 300 nM |
| Cc1cc(NC(=O)N2CCc3[nH]nc(C45CCCC4C5)c3C2)ccc1F (stereo not drawn) | in the range around 55 nM |
| N#Cc1cc(NC(=O)N2CCc3[nH]nc(C45CCCC4C5)c3C2)ccc1F (stereo not drawn) | in the range around 55 nM |
| CC1Cc2[nH]nc(C3CCCC3)c2CN1C(=O)Nc1ccc(F)c(Br)c1 (stereo not drawn) | in the range around 55 nM |
| C=C(C)c1n[nH]c2c1CN(C(=O)Nc1ccnc(Cl)c1F)CC2 | in the range around 300 nM |
| O=C(Nc1cccc(Cl)c1)N1CCc2[nH]nc(C3=CCCC3)c2C1 | in the range around 55 nM |
| O=C(Nc1cccc(Cl)c1)N1CCc2[nH]nc(C34CCCC3C4)c2C1 (stereo not drawn) | in the range around 55 nM |
| O=C(Nc1ccnc(Br)c1F)N1CCc2[nH]nc(C34CCCC3C4)c2C1 (stereo not drawn) | in the range around 55 nM |

| Structure (SMILES) | EC50 |
| --- | --- |
| O=C(Nc1cccc(Cl)c1)N1CCc2[nH]nc(C3=CC(F)CC3)c2C1 (stereo not drawn) | in the range around 55 nM |
| Cc1cccc(NC(=O)N2Cc3c(C4CCCC4)n[nH]c3CC2C)c1 (stereo not drawn) | in the range around 55 nM |
| CC1Cc2[nH]nc(C3CCCC3)c2CN1C(=O)Nc1ccc(F)c(Cl)c1 (stereo not drawn) | in the range around 55 nM |
| CC1(c2n[nH]c3c2CN(C(=O)Nc2cccc(Cl)c2)CC3)CCC1 | in the range around 55 nM |
| CCCc1n[nH]c2c1CN(C(=O)Nc1cccc(Cl)c1)CC2 | in the range around 300 nM |
| O=C(Nc1cccc(Cl)c1)N1CCc2[nH]nc(N3CCCC3)c2C1 | in the range around 300 nM |
| O=C(Nc1cccc(Cl)c1)N1CCc2[nH]nc(C3=CCOCC3)c2C1 | in the range around 300 nM |
| C=C(C)c1n[nH]c2c1CN(C(=O)Nc1cccc(Br)c1F)CC2 | in the range around 55 nM |
| CC(C)(O)c1n[nH]c2c1CN(C(=O)Nc1cccc(Cl)c1)CC2 | > 10000 nM |
| CC1Cc2[nH]nc(C3CCCC3)c2CN1C(=O)Nc1cccc(Br)c1 (stereo not drawn) | in the range around 55 nM |
| O=C(Nc1cccc(Cl)c1)N1CCc2[nH]nc(C3CCC3)c2C1 | in the range around 55 nM |
| O=C(Nc1cccc(Cl)c1)N1CCc2[nH]nc(C3(C(F)(F)F)CC3)c2C1 | in the range around 300 nM |
| Cc1cccc(NC(=O)N2Cc3c(C4CCC4)n[nH]c3CC2C)c1 (stereo not drawn) | in the range around 55 nM |
| O=C(Nc1cccc(Cl)c1)N1CCc2[nH]nc(C3CC3)c2C1 | in the range around 300 nM |
| CC1Cc2[nH]nc(C3CCCC3)c2CN1C(=O)Nc1ccnc(Br)c1F (stereo not drawn) | in the range around 55 nM |
| Cc1cccc(NC(=O)N2Cc3c(C4CCCO4)n[nH]c3CC2C)c1 (stereo not drawn) | in the range around 300 nM |
| CC1Cc2[nH]nc(C3CCC3)c2CN1C(=O)Nc1ccnc(Br)c1F (stereo not drawn) | in the range around 300 nM |
| O=C(Nc1cccc(Br)c1F)N1CCc2[nH]nc(C34CCCC3C4)c2C1 (stereo not drawn) | in the range around 55 nM |
| CC1Cc2[nH]nc(C3CCC3)c2CN1C(=O)Nc1ccc(F)c(C#N)c1 (stereo not drawn) | in the range around 55 nM |
| O=C(Nc1cccc(Cl)c1)N1CCc2[nH]nc(C3CCOCC3)c2C1 | in the range around 300 nM |
| CCCC(F)(F)c1n[nH]c2c1CN(C(=O)Nc1cccc(Cl)c1)CC2 | in the range around 55 nM |
| N#Cc1cc(NC(=O)N2CCc3[nH]nc(C4CCC4)c3C2)ccc1F | in the range around 55 nM |
| O=C(Nc1cccc(Cl)c1)N1CCc2[nH]nc(C3CC=CC3)c2C1 | in the range around 55 nM |
| Cc1cccc(NC(=O)N2CCc3[nH]nc(C45CCCC4C5)c3C2)c1 (stereo not drawn) | in the range around 55 nM |
